We go through nine molecules from patent publication US8455466B2, “Vitamin d analogues, compositions comprising said analogues and their use” (Leo Pharma A/S, priority 2002, dated 2013).

The test system of series [1] is rats. Briefly: In vivo calcemic activity in rats (Binderup et al.). Also noted: species or system rat. To be noted: Calcitriol = 100%.
The test system of series [2] is bovine parathyroidea cells. Briefly: In vitro PTH secretion in bovine parathyroidea cells. The class given is cell-based. The conditions noted are these: cells treated with vitamin D analogues for 60 hours at 37° C. Here is the method:
The calcemic activities of the compounds of the present invention were determined in rats in vivo, as previously described (Binderup, L., Bramm, E., Biochem. Pharmacol. 37, 889-895 (1988)). The PTH suppressive effect of the compounds of the present invention was tested in vitro on bovine parathyroidea cells: Fresh bovine parathyroid glands were collected from adult cattle within 20 min of slaughter. From minced parathyroid tissue dispersed parathyroid cells were prepared as previously described (E. M. Brown, S. Hurwitz and G. D Aurbach; Preparation of viable isolated bovine parathyroid cells; Endocrinology, 1976, vol 99, no 6, 1582-1588). Then, the cells were treated with vitamin D analogues for 60 hours at 37° C. and the PTH secretion was determined.

Series [3] deals with secretion of PTH. The conditions noted are these: patients; 1α(OH)D3 versus 1,25(OH)2 D3 administered; cited from earlier work.

With “1(S),3(R)-Dihydroxy-9,10-seco-26,27-methano-20(S)-cholesta-5(Z),7(E),10(19),22(E),24-penta-ene [Compound 7]”, the “In vivo calcemic activity relative to Calcitriol (1,25(OH)2D3)” value in series [1] is on record as below 0.5% ^. Moreover, the “In vitro PTH secretion relative to untreated bovine parathyroidea cells (untreated cells as control = 100%)” value in series [2] was found to be 65%.

On to “1(S),3(R)-Dihydroxy-9,10-seco-26,27-methano-cholesta-5(Z),7(E),10(19),22(E),24-penta-ene [Compound 6]”, for which, in series [1], the “In vivo calcemic activity relative to Calcitriol (1,25(OH)2D3)” value is 1%. The “In vitro PTH secretion relative to untreated bovine parathyroidea cells (untreated cells as control = 100%)” value in series [2] was 56%.

For `C=C1/C(=C\C=C2/CCC[C@]3(C)[C@@H]([C@H](C)CCCC(C)C)CC[C@@H]23)C[C@@H](O)C[C@@H]1O` [1α(OH)D3], in series [3], the “suppression of the secretion of PTH, compared with 1,25(OH)2 D3 dosing” value is on record as “no significant difference”.

On to `C=C1/C(=C\C=C2/CCC[C@]3(C)[C@@H]([C@H](C)CCCC(C)(C)O)CC[C@@H]23)C[C@@H](O)C[C@@H]1O` [Calcitriol, 1,25(OH)2D3, reference compound], for which, in series [1], the “In vivo calcemic activity relative to Calcitriol (1,25(OH)2D3)” value is 100%. Besides, the “In vitro PTH secretion relative to untreated bovine parathyroidea cells (untreated cells as control = 100%)” value in series [2] is 60%.

Consider `C=C1C(=CC=C2CCCC3(C)C2CCC3C(C)C=CC=C(C)C)CC(O)CC1O` [Compound 1, 1(S),3(R)-Dihydroxy-9,10-secocholesta-5(Z),7(E),10(19),22(E),24-penta-ene], for which, in series [1], the “In vivo calcemic activity relative to Calcitriol (1,25(OH)2D3)” value is below 10% ^. Besides, the “In vitro PTH secretion relative to untreated bovine parathyroidea cells (untreated cells as control = 100%)” value in series [2] worked out at 57%.

With `C=C1C(=CC=C2CCCC3(C)C2CCC3C(C)C=CC=C(C)C)CC(O)CC1O` [Compound 3, 1(S),3(R)-Dihydroxy-9,10-seco-20(S)-cholesta-5(Z),7(E),10(19), 22(E),24-penta-ene], the “In vivo calcemic activity relative to Calcitriol (1,25(OH)2D3)” value in series [1] is 1%. The “In vitro PTH secretion relative to untreated bovine parathyroidea cells (untreated cells as control = 100%)” value in series [2] is listed as 61%.

Consider `C=C1C(=CC=C2CCCC3(C)C2CCC3C(C)C=CC=C(C(F)(F)F)C(F)(F)F)CC(O)CC1O` [Compound 25, 1(S),3(R)-Dihydroxy-26,26,26,27,27,27-hexafluoro-9,10-secocholesta-5(Z),7(E),10(19),22(E),24-penta-ene], for which the “In vivo calcemic activity relative to Calcitriol (1,25(OH)2D3)” value in series [1] is listed as 8%. For the same molecule, in series [2], the “In vitro PTH secretion relative to untreated bovine parathyroidea cells (untreated cells as control = 100%)” value is given as 74%.

Regarding `C=C1C(=CC=C2CCCC3(C)C2CCC3C(C)C=CC=C(Br)Br)CC(O)CC1O` [Compound 27, 1(S),3(R)-Dihydroxy-20(R)-(4,4-dibromo-1,3-butadien-1-yl)-9,10-seco-pregna-5(Z),7(E),10(19)-triene], the “In vivo calcemic activity relative to Calcitriol (1,25(OH)2D3)” value in series [1] is recorded as below 0.5% ^. For the same molecule, the “In vitro PTH secretion relative to untreated bovine parathyroidea cells (untreated cells as control = 100%)” value in series [2] worked out at 65%.

As for `C=C1/C(=C\C=C2/CCC[C@]3(C)[C@@H]([C@H](C)/C=C/C=C(CC)CC)CC[C@@H]23)C[C@@H](O)C[C@@H]1O` [Compound 28, 1(S),3(R)-Dihydroxy-26,27-dimethyl-9,10-secocholesta-5(Z),7(E),10(19),22(E),24-penta-ene], the “In vivo calcemic activity relative to Calcitriol (1,25(OH)2D3)” value in series [1] is 1%. Besides, the “In vitro PTH secretion relative to untreated bovine parathyroidea cells (untreated cells as control = 100%)” value in series [2] is 62%.
